In series [1] the test system is Plasmodium falciparum. In words: Antimalarial activity against Plasmodium falciparum […] incubated for 48 hrs. The series is classed as functional, organism-based.
Series [2] deals with Plasmodium falciparum. In words: Antiplasmodial activity against Plasmodium falciparum 3D7 at asexual erythrocytic stage infected in human erythrocytes assessed as parasite growth inhibition incubated for 42 hrs by [3H]-hypoxanthine incorporation assay. The note with it: 3D7, Erythrocyte. The series is classed as functional, organism-based.
In series [3] the test system is Plasmodium falciparum. In words: Antimalarial activity against CQ-resistant Plasmodium falciparum K1. The series is classed as functional, organism-based.
Series [4] concerns Plasmodium falciparum. The series is described as follows: Antiplasmodial activity against CQ-sensitive Plasmodium falciparum NF54. In kind it is functional, organism-based.
Series [5] can be described thus: Cytotoxicity against African green monkey Vero cells. In kind it is toxicity, cell-based. The settings on record: chlorocebus sabaeus.
Series [6] deals with Plasmodium falciparum. The series is described as follows: Antimalarial activity against Plasmodium falciparum 3D7 at asexual erythrocytic stage assessed as parasite growth inhibition measured after 24 hrs by [3H]-hypoxanthine incorporation assay. In kind it is functional, organism-based.
In series [7] the test system is Plasmodium falciparum. The series is described as follows: Antimalarial activity against CQ-resistant Plasmodium falciparum Dd2. The series is classed as functional, organism-based.
The nature of series [8]: Cytotoxicity against human erythrocytes. In kind it is toxicity, cell-based, Erythrocyte.
In series [9] the test system is Plasmodium falciparum. In words: Antimalarial activity against Plasmodium falciparum 3D7 infected in erythrocytes assessed as parasite growth inhibition incubated for 42 hrs by [3H]-hypoxanthine incorporation assay. The series is classed as functional, organism-based. The note with it: 3D7, Erythrocyte.
Series [10] has as its system Plasmodium falciparum. In words: Antimalarial activity against Plasmodium falciparum 3D7 assessed as inhibition of parasitemia incubated for 72 hrs by fluorescence based assay. The settings on record: 3D7, 72 h. The series is classed as functional, organism-based.
The test system of series [11] is Plasmodium falciparum. In words: Antimalarial activity against Plasmodium falciparum Dd2 infected in A+ human erythrocytes assessed as reduction in parasite growth incubated for 72 hrs by SYBR Green I staining based analysis. The series is classed as functional, organism-based. The note with it: Dd2, Erythrocyte.
Series [12] has as its system Plasmodium falciparum. The series is described as follows: Antimalarial activity against Plasmodium falciparum 3D7 infected in A+ human erythrocytes assessed as reduction in parasite growth incubated for 72 hrs by SYBR Green I staining based analysis. The series is classed as functional, organism-based. The note with it: 3D7, Erythrocyte.
For series [13], the system named is Plasmodium falciparum. In words: Antimalarial activity against Plasmodium falciparum K1 infected in A+ human erythrocytes assessed as reduction in parasite growth incubated for 72 hrs by SYBR Green I staining based analysis. The series is classed as functional, organism-based. The note with it: K1, Erythrocyte.
Series [14] deals with Plasmodium falciparum. In words: Antiplasmodial activity against CQ-sensitive Plasmodium falciparum F32 Tanzania assessed as parasite growth inhibition incubated for 48 hrs. In kind it is functional, organism-based.

These results are taken from ChEMBL document CHEMBL5512597, “Triazole hybrid compounds: A new frontier in malaria treatment” (Eur J Med Chem, 2023).

In general, IC50 refers to the point on the concentration scale where inhibition reaches its midpoint. Usually CC50 stands for the concentration giving 50% cytotoxicity. Broadly, the EC50 is the midpoint of the concentration-response curve.

Converted amounts (≈) assume the structure as drawn.

For `Cc1ccc(-c2cc(-c3c(C)nn(-c4ccccc4)c3-n3cncn3)n3c(n2)nc2ccccc23)cc1`, in the series with Plasmodium falciparum [1], 1.5 µg/mL (≈ 3.11 µM) corresponded to half-maximal inhibition (IC50). `Cc1cc(C)nc(NS(=O)(=O)c2ccc(-n3cc(COc4ccccc4)nn3)cc2)n1`: the IC50 in the series on Plasmodium falciparum [2] is more than 50 µg/mL.

`NS(=O)(=O)c1ccc(-n2cc(COc3ccccc3)nn2)cc1`: in the series with Plasmodium falciparum [2], the IC50 was 15 µg/mL (≈ 45.4 µM). As to `Cc1ccc(N2C(=O)[C@@H](Oc3ccccc3)[C@H]2c2ccc(OCc3cn(Cc4ccccc4)nn3)cc2)cc1`, in the series with Plasmodium falciparum [3], the IC50 worked out at 15.5 µM.

The compound `C=CCn1cc(COc2ccc([C@@H]3[C@H](Oc4ccccc4)C(=O)N3c3ccc(C)cc3)cc2)nn1` displayed an IC50 with Plasmodium falciparum [3] of 8.43 µM.

Regarding `Cc1ccc(-n2cc(COC(=O)[C@@]3(C)CC[C@]4(C)CC[C@]5(C)C(=CC(=O)[C@@H]6[C@@]7(C)CC[C@H](O)C(C)(C)[C@@H]7CC[C@]65C)[C@@H]4C3)nn2)cc1Cl`, the IC50 in the series with Plasmodium falciparum [4] was 4.03 µM. Besides, half-maximal cytotoxicity in [5] (CC50) was put at 377 µM. In the case of `NS(=O)(=O)c1ccc(-n2cc(COc3cc(=O)oc4ccccc34)nn2)cc1`, the half-inhibitory concentration (IC50) with Plasmodium falciparum [6] came to 100 µM.

Take `Cc1ccc(OCc2cn(-c3ccc(S(N)(=O)=O)cc3)nn2)cc1`: the IC50 in the series with Plasmodium falciparum [2] is more than 50 µg/mL. As to `Cc1nn(-c2ccccc2)c(-n2cncn2)c1-c1cc(-c2cccs2)nc2nc3ccccc3n12`, in the series with Plasmodium falciparum [1], the IC50 worked out at 0.83 µg/mL (≈ 1.75 µM).

Take `CC1(C)[C@@H](O)CC[C@]2(C)[C@H]3C(=O)C=C4[C@@H]5C[C@@](C)(C(=O)OCc6cn(-c7ccc(F)cc7)nn6)CC[C@]5(C)CC[C@@]4(C)[C@]3(C)CC[C@@H]12`: in the series with Plasmodium falciparum [4], the IC50 was 8.82 µM. The compound further showed a half-maximal cytotoxic concentration (CC50) in [5] of 226 µM.

For `O=[N+]([O-])c1ccc(Cn2cc(-c3ccccc3CBr)nn2)cc1`, the IC50 with Plasmodium falciparum [7] was more than 100 µg/mL. In series [8], the CC50 is more than 100 µg/mL. The compound `O=C1c2ccccc2C(=O)N1[C@H]1C(=O)N(c2ccc(OCc3cn(Cc4ccccc4)nn3)cc2)[C@@H]1c1ccc(OCc2cn(Cc3ccccc3)nn2)cc1` showed a half-inhibitory concentration (IC50) with Plasmodium falciparum [3] of 1.81 µM.

`COc1ccc2cc3[n+](cc2c1OCc1cn(-c2ccc(S(=O)(=O)N4CCOCC4)cc2)nn1)CCc1cc2c(cc1-3)OCO2.[Cl-]`: the IC50 in the series on Plasmodium falciparum [9] amounted to 0.5 µg/mL. As to `C=CCn1cc(COc2ccc([C@@H]3[C@H](Oc4ccccc4)C(=O)N3c3ccccc3)cc2)nn1`, inhibition with Plasmodium falciparum [3] was half-maximal at 6.19 µM (IC50). Consider `CCOCc1cn(-c2ccc(Cl)cc2)nn1`, for which the IC50 in the series with Plasmodium falciparum [10] was determined as 11.7 µM.

Take `Cc1cc(=O)oc2cc(OCc3cn(-c4ccc(S(=O)(=O)N5CCOCC5)cc4)nn3)c(Cl)cc12`: in the series on Plasmodium falciparum [6], the IC50 is 50.4 µM. For `COc1ccc2cc3[n+](cc2c1OCc1cn(-c2ccc(S(=O)(=O)Nc4ccc(Cl)cc4)cc2)nn1)CCc1cc2c(cc1-3)OCO2.[Cl-]`, the IC50 in the series on Plasmodium falciparum [9] amounted to 0.1 µg/mL. In turn, `Cc1nn(-c2ccccc2)c(-n2cncn2)c1C=O` showed a half-inhibitory concentration (IC50) with Plasmodium falciparum [1] of 1.32 µg/mL (≈ 5.21 µM). Turning to `Cc1cc(C)nc(NS(=O)(=O)c2ccc(-n3cc(COc4cc(=O)oc5ccccc45)nn3)cc2)n1`, in the series on Plasmodium falciparum [6], the IC50 is more than 79.4 µM.

With `Cc1nn(-c2ccccc2)c(-n2cncn2)c1-c1cc(-c2cc[nH]c2)nc2nc3ccccc3n12`, half-maximal inhibition in the series with Plasmodium falciparum [1] (IC50) required 0.092 µg/mL (≈ 0.201 µM). For the compound `C[C@H]1[C@H](OC(=O)CCC(=O)O)O[C@@H]2O[C@@]3(C)CC[C@H]4[C@H](C)CC[C@@H]1[C@@]24OO3` [ARTESUNATE], the figures for the EC50 in the series with Plasmodium falciparum [11], in the series on Plasmodium falciparum [12] and in the series with Plasmodium falciparum [13] were 0.0109 µM, 0.0144 µM and 0.0052 µM, respectively. The compound also yielded an IC50 with Plasmodium falciparum [7] of 0.002 µg/mL (≈ 0.0052 µM). Besides, the CC50 in series [8] was more than 100 µg/mL. `CC1(C)[C@@H](O)CC[C@]2(C)[C@H]3C(=O)C=C4[C@@H]5C[C@@](C)(C(=O)OCc6cn(-c7ccc(C#N)cc7)nn6)CC[C@]5(C)CC[C@@]4(C)[C@]3(C)CC[C@@H]12` came in with an IC50 with Plasmodium falciparum [4] of 1.14 µM. This compound also registered a CC50 in series [5] of 190 µM. In turn, `COc1ccc(N2C(=O)[C@@H](Oc3ccccc3)[C@H]2c2ccc(OCc3cn(Cc4ccccc4)nn3)cc2)cc1OC` had an IC50 with Plasmodium falciparum [3] of 5.14 µM. In turn, `CC1(C)[C@@H](O)CC[C@]2(C)[C@H]3C(=O)C=C4[C@@H]5C[C@@](C)(C(=O)OCc6cn(-c7ccc([N+](=O)[O-])cc7)nn6)CC[C@]5(C)CC[C@@]4(C)[C@]3(C)CC[C@@H]12` gave an IC50 with Plasmodium falciparum [4] of 2.71 µM. This compound also displayed a CC50 in series [5] of 175 µM. In the series with Plasmodium falciparum [1], `Cc1nn(-c2ccccc2)c(-n2cncn2)c1-c1cc(-c2ccc(O)cc2)nc2nc3ccccc3n12` displayed an IC50 of 0.054 µg/mL (≈ 0.111 µM). With `CC1(C)[C@@H](O)CC[C@]2(C)[C@H]3C(=O)C=C4[C@@H]5C[C@@](C)(C(=O)OCc6cn(-c7ccc(Cl)cc7)nn6)CC[C@]5(C)CC[C@@]4(C)[C@]3(C)CC[C@@H]12`, in the series on Plasmodium falciparum [4], half-maximal inhibition (IC50) required 0.48 µM. This compound also yielded a CC50 in [5] of 391 µM. Turning to `O=[N+]([O-])c1ccccc1Cn1cc(CO)nn1`, the IC50 in the series with Plasmodium falciparum [7] was 0.65 µg/mL (≈ 2.78 µM). The same compound came in with a CC50 in series [8] of 75.5 µg/mL (≈ 322 µM). Turning to `Clc1ccc(N/N=C/c2cnn(-c3ccccc3)n2)cc1`, the IC50 in the series on Plasmodium falciparum [10] amounted to 9.29 µM. The compound `CO[C@@H]1C(=O)N(c2ccc(OCc3cn(Cc4ccccc4)nn3)cc2)[C@@H]1c1ccc(OCc2cn(Cc3ccccc3)nn2)cc1` returned an IC50 with Plasmodium falciparum [3] of 0.85 µM.

Regarding `CCCCn1cc(COC2=CC(=O)c3ccccc3C2=O)nn1`, the IC50 with Plasmodium falciparum [14] stood at 11.2 µM.
